The values that follow come from article PMC7012011, “In vitro inhibitory effects of dihydromyricetin on human liver cytochrome P450 enzymes” (Pharmaceutical Biology, 2017).

The structures appear in SMILES notation.

The kinact is the maximal first-order rate at which the target is inactivated. Usually IC50 stands for the concentration at which inhibition is half-maximal. Low values mean greater potency in that assay, high ones weaker potency in that assay. By Ki is commonly meant a measure of affinity in units of concentration, obtained from inhibition or displacement. Read a low Ki as tighter binding. As a reminder, the Cmax is the maximum level reached in the sampled fluid or tissue.

One data set has as its target T1, CYP2C8 (Homo sapiens, UniProt P10632).
T1 construct: from tissue; host or cells: pooled human liver microsomes
T1 sequence (P10632 1-490): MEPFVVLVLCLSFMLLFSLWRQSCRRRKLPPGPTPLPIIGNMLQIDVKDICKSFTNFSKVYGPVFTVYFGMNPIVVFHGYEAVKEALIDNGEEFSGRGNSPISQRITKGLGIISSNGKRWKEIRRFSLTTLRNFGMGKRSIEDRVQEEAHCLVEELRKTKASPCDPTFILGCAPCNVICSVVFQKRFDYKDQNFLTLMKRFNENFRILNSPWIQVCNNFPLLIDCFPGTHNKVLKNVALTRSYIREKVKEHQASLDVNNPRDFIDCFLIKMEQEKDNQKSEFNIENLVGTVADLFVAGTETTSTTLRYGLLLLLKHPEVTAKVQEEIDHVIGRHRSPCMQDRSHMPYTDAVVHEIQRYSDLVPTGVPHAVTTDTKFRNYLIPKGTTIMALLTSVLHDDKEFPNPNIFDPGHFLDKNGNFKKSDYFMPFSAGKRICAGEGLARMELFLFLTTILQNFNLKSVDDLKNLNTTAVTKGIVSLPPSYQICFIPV
In words: CYP2C8 inhibition, paclitaxel 6α-hydroxylation in pooled HLMs. It is filed as in vitro ADME. The following applies: DHM 100 μM. Here is the method:
(§1) All incubations were performed in triplicate, and the mean values were utilized. The typical incubation systems contained 100 mM potassium phosphate buffer (pH 7.4), NADPH-generating system (1 mM NADP^+, 10 mM glucose-6-phosphate, 1 U/mL of glucose-6-phosphate dehydrogenase, and 4 mM MgCl2), the appropriate concentration of HLM, a corresponding probe substrate and DHM (or positive inhibitor for different probe reactions) in a final volume of 200 μL.
(§2) The concentration of DHM was 100 μM, and the positive inhibitor concentrations were as follows: 10 μM furafylline for CYP1A2, 1 μM ketoconazole for CYP3A4, 10 μM tranylcypromine for CYP2A6, 50 μM clomethiazole for CYP2E1, 10 μM quinidine for CYP2D6, 10 μM sulphaphenazole for CYP2C9, 50 μM tranylcypromine for CYP2C19 and 5 μM montelukast for CYP2C8. Probe substrates, positive inhibitors (except for dextromethorphan and quinidine which were dissolved in water) and DHM were dissolved in methanol, with a final concentration of 1% (v/v), and 1% neat methanol was added to the incubations without inhibitor. […] The instrument used in this study were Agilent 1260 series instrument with DAD and FLD detector (Agilent Technologies, Palo Alto, CA), and the quantitative assay for the corresponding metabolites was performed as previously reported by us (Zhang et al. [2016]). […]

A further data set addresses T2, CYP2C19 (Homo sapiens, UniProt P33261).
T2 construct: from tissue; host or cells: pooled human liver microsomes
In words: CYP2C19 inhibition, S-mephenytoin 4-hydroxylation in pooled HLMs. It counts as in vitro ADME. The conditions noted are these: DHM 100 μM. Here is the method:
as §1, §2

Data set [1] has as its target T3, CYP3A4 (Homo sapiens, UniProt P08684).
T3 construct: CYP3A4 catalyzed reactions (testosterone 6β-hydroxylation) in pooled HLM; from tissue; host or cells: pooled human liver microsomes
Description: Time-dependent inhibition study of CYP3A4 in HLMs. It is filed as in vitro ADME. Here is the method: (§3) To determine whether DHM could inhibit the activity of CYP3A4, CYP2E1 and CYP2D6 in a time-dependent manner, DHM (20 μM) was pre-incubated with HLMs (1 mg/mL) in the presence of an NADPH-generating system for 30 min at 37 °C. After incubation, an aliquot (20 μL) was transferred to another incubation tube (a final volume of 200 μL) containing an NADPH-generating system and probe substrates whose final concentrations were approximate to Km. Then, further incubations were performed to measure the residual activity. After being incubated for 10 and 30 min, the reactions were terminated by adding a 100 μL acetonitrile internal standard mix and then placed on ice; the corresponding metabolites was determined by HPLC.
To determine the KI and kinact values for the inactivation of CYP3A4, the incubations were conducted using higher probe substrate concentrations (approximately four-fold Km values) and various concentrations of DHM (0–50 μM) after different preincubation times (0–30 min), with a two-step incubation scheme, as described above.

Data set [2] concerns the target T4, CYP2E1 (Homo sapiens, UniProt P05181).
T4 construct: CYP2E1 catalyzed reactions (chlorzoxazone 6-hydroxylation) in pooled HLM; from tissue; host or cells: pooled human liver microsomes
Description: CYP2E1 inhibition, chlorzoxazone 6-hydroxylation in pooled HLMs. It is filed as in vitro ADME.

Another data set concerns the target T5, CYP2C9 (Homo sapiens, UniProt P11712).
T5 construct: from tissue; host or cells: pooled human liver microsomes
In words: CYP2C9 inhibition, diclofenac 4'-hydroxylation in pooled HLMs. The following applies: DHM 100 μM. It is filed as in vitro ADME. Here is the method:
as §1, §2

On the set-up of data set [3]: method as in Zhang et al. [2007]; Tong et al. [2015]. The following applies: rats, oral administration of 1564.8 mg/kg of Rattan Tea decoction; ref Zhang et al. [2007]; Tong et al. [2015]; cited from earlier work.
In data set [4] the target is T4, CYP2E1. In words: Time-dependent inhibition study of CYP2E1 in HLMs. The following applies: DHM 20 μM, pre-incubation with HLM and NADPH for 30 min. It is filed as in vitro ADME. How it is done: as §3
The target of data set [5] is T3, CYP3A4. In words: CYP3A4 inhibition, testosterone 6β-hydroxylation in pooled HLMs. It is filed as in vitro ADME. Here is the method: as §1
(§4) The concentration of DHM was 100 μM, and the positive inhibitor concentrations were as follows: 10 μM furafylline for CYP1A2, 1 μM ketoconazole for CYP3A4, 10 μM tranylcypromine for CYP2A6, 50 μM clomethiazole for CYP2E1, 10 μM quinidine for CYP2D6, 10 μM sulphaphenazole for CYP2C9, 50 μM tranylcypromine for CYP2C19 and 5 μM montelukast for CYP2C8. Probe substrates, positive inhibitors (except for dextromethorphan and quinidine which were dissolved in water) and DHM were dissolved in methanol, with a final concentration of 1% (v/v), and 1% neat methanol was added to the incubations without inhibitor. There was a 3-min preincubation period (at 37 °C) before the reaction was initiated by adding a NADPH-generating system. The reaction was terminated by adding a 100 μL acetonitrile (10% trichloroacetic acid for CYP2A6) internal standard mix, and the solution was placed on ice. The mixture was centrifuged at 12,000 rpm for 10 min, and an aliquot (50 μL) of supernatant was transferred for HPLC analysis. The instrument used in this study were Agilent 1260 series instrument with DAD and FLD detector (Agilent Technologies, Palo Alto, CA), and the quantitative assay for the corresponding metabolites was performed as previously reported by us (Zhang et al. [2016]).
(§5) A 100 μM DHM was used to initially screen for its direct inhibitory effects toward different human CYP isoforms. […] The residual activity of the CYP isoforms were measured by adding different concentrations of DHM (0–100 μM), and then the IC50 values were calculated. […]
(§6) The enzyme kinetic parameters for the probe reaction were estimated from the best fit line using least-squares linear regression of the inverse substrate concentration versus the inverse velocity (Lineweaver–Burk plots), and the mean values were used to calculate Vmax and Km. Inhibition data from the experiments that were conducted using multiple compound concentrations were represented by Dixon plots, and inhibition constant (Ki) values were calculated using non-linear regression according to the following equation: v=(VmaxS)/(Km(1+I/Ki)+S), where I is the concentration of the compound, Ki is the inhibition constant, S is the concentration of the substrate and Km is the substrate concentration at half the maximum velocity (Vmax) of the reaction. […]

The target of data set [6] is T6, CYP2D6 (Homo sapiens, UniProt P10635).
T6 construct: CYP2D6 catalyzed reactions (dextromethorphan O-demethylation) in pooled HLM; from tissue; host or cells: pooled human liver microsomes
T6 sequence (P10635 whole entry): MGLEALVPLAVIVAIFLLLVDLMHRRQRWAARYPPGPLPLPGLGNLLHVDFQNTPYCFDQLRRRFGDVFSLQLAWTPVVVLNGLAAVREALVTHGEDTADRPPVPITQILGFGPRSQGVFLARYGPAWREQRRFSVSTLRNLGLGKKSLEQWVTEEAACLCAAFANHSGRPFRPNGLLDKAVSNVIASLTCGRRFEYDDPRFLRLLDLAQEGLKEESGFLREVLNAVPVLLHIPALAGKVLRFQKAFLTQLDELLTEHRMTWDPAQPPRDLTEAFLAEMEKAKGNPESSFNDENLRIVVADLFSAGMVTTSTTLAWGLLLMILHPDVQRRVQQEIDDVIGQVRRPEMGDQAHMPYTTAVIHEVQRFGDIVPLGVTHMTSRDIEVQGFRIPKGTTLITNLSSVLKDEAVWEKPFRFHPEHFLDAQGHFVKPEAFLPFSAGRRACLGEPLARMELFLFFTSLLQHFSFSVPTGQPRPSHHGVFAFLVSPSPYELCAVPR
Description: Time-dependent inhibition study of CYP2D6 in HLMs. It counts as in vitro ADME. The following applies: DHM 20 μM, pre-incubation with HLM and NADPH for 30 min. Here is the method: as §3

Data set [7] concerns the target T6, CYP2D6. Description: CYP2D6 inhibition, dextromethorphan O-demethylation in pooled HLMs. It is filed as in vitro ADME. Here is the method:
as §1, §4, §5, §6

The target in a further data set is T7, CYP1A2 (Homo sapiens, UniProt P05177).
T7 construct: from tissue; host or cells: pooled human liver microsomes
T7 sequence (P05177 1-516): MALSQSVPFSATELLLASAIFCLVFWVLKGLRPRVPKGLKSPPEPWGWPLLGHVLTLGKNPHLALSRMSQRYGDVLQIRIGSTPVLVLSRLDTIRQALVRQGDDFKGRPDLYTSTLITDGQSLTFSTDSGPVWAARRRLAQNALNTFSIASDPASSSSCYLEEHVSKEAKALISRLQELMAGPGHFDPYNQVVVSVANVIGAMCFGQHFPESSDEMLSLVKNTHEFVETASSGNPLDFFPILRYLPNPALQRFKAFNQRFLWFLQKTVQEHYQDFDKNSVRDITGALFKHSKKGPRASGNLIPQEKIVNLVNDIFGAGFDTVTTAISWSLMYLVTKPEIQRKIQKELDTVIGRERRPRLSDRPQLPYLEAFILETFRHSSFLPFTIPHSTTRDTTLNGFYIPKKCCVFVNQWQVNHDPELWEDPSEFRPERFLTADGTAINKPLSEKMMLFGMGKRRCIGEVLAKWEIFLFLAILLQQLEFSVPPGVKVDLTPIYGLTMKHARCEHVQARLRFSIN
In words: CYP1A2 inhibition, phenacetin O-deethylation in pooled HLMs. It counts as in vitro ADME. The following applies: DHM 100 μM. Here is the method:
as §1, §2

A further data set addresses T8, CYP2A6 (Homo sapiens, UniProt P11509).
T8 construct: from tissue; host or cells: pooled human liver microsomes
T8 sequence (P11509 1-494): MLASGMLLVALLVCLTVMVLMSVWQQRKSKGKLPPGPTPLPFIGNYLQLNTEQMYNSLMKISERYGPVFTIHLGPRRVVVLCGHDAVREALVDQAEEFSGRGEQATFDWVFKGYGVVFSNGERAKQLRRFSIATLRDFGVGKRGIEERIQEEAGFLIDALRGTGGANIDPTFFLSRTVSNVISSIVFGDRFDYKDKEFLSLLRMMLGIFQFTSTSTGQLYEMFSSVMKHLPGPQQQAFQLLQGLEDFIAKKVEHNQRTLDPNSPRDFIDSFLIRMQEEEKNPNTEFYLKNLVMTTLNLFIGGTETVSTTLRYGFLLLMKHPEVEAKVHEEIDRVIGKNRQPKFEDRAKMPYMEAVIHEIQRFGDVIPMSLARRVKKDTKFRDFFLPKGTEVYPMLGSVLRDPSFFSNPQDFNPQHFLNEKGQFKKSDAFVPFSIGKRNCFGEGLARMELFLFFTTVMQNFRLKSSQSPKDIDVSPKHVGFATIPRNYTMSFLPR
In words: CYP2A6 inhibition, coumarin 7-hydroxylation in pooled HLMs. It is filed as in vitro ADME. The following applies: DHM 100 μM. How it is done:
as §1, §2

T4 sequence (P05181 whole entry): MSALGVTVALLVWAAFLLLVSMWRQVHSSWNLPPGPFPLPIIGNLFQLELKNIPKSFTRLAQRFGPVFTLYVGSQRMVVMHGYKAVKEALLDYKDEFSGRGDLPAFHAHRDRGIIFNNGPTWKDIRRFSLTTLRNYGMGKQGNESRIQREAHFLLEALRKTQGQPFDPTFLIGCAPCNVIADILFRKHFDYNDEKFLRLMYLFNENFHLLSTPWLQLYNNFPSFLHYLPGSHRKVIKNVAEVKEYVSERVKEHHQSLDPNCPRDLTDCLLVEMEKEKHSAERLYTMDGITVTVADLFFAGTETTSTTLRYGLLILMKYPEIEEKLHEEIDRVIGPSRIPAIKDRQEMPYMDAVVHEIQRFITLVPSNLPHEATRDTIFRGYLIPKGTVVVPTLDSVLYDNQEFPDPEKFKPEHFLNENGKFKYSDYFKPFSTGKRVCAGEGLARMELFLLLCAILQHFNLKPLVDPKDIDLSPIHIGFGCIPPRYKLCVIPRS
T3 sequence (P08684 whole entry): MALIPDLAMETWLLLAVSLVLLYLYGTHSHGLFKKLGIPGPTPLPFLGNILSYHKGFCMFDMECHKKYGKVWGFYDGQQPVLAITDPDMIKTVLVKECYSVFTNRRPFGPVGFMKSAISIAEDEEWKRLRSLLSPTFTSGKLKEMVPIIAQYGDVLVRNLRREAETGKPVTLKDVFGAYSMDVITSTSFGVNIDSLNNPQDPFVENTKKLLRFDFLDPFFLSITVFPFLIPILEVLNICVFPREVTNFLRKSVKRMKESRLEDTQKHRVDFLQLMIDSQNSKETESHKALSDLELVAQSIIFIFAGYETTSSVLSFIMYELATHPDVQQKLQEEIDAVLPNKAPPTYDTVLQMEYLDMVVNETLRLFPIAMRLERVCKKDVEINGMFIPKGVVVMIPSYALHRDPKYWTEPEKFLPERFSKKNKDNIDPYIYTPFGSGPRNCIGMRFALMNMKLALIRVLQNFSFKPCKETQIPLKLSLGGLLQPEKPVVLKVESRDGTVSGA
T2 sequence (P33261 whole entry): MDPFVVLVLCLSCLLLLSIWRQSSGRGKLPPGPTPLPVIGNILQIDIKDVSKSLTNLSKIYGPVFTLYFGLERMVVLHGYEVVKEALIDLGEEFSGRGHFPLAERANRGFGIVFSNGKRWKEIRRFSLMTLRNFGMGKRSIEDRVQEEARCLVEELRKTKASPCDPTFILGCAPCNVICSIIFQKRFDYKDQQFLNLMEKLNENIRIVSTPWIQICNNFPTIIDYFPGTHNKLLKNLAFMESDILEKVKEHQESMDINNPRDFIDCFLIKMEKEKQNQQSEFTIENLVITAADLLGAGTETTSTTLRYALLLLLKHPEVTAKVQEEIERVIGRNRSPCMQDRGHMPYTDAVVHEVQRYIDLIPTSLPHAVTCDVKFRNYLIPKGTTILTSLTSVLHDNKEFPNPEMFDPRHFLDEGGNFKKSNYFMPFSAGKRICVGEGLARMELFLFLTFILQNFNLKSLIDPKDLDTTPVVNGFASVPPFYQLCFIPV
T5 sequence (P11712 whole entry): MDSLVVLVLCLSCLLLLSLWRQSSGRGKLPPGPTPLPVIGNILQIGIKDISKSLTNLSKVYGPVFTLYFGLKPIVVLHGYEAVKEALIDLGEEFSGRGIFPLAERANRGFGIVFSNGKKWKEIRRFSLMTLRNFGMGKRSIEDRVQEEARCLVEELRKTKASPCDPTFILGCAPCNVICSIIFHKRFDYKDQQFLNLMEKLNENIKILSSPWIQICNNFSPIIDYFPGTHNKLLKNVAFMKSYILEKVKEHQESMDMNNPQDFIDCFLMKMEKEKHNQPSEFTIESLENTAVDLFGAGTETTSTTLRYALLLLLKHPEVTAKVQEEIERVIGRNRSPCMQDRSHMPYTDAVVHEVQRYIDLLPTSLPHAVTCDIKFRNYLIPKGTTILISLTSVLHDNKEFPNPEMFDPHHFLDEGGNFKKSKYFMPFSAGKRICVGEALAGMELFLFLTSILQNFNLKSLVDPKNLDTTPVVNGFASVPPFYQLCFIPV

Regarding `O=C1c2c(O)cc(O)cc2O[C@H](c2cc(O)c(O)c(O)c2)[C@H]1O` [DHM, Dihydromyricetin], the “Inhibition of CYP2C8 activity” value on CYP2C8 is “did not inhibit”. For the same compound, the “Inhibition of CYP2C19 activity” value on CYP2C19 is listed as “did not inhibit”. In addition, the “Time-dependent inhibition: activity of CYP3A4 after pre-incubation” value at CYP3A4 [1] (DHM 20 μM, pre-incubation with HLM and NADPH for 30 min) was “decreased with the incubation time”. For the same compound, at CYP3A4 [1] (human, human liver microsomes, DHM 0–50 μM, preincubation 0–30 min, non-linear regression, HLM), the KI (inactivation) amounted to 12.2 µM. Further, the kinact on CYP3A4 [1] (human, human liver microsomes, DHM 0–50 μM, preincubation 0–30 min, non-linear regression, HLM, read-out: Kinact for inactivation of CYP3A4 (converted)) was 0.00095 s⁻¹. The “CYP3A4 inactivated each minute” value at CYP3A4 [1] (saturating concentration of DHM incubated with HLM, implied by Kinact) was “approximately 5.7%”. Moreover, the IC50 was 25.7 µM at CYP2E1 [2] (DHM 0–100 μM, pooled HLMs); 14.8 µM on CYP3A4 [5] (DHM 0–100 μM, pooled HLMs); 22.7 µM against CYP2D6 [7] (DHM 0–100 μM, pooled HLMs). Further, the “Manner of inhibition of CYP2E1” value on CYP2E1 [2] (Lineweaver–Burk plots) is “competitive”. Besides, the inhibition at 100 μM is 74.6% on CYP2E1 [2] (human, pooled human liver microsomes, pH 7.4, probe chlorzoxazone (6-hydroxylation), DHM 100 μM, pooled HLMs, read-out: CYP2E1 activity inhibited to % of control activity); 87.7% on CYP3A4 [5] (human, pooled human liver microsomes, pH 7.4, probe testosterone (6β-hydroxylation), DHM 100 μM, pooled HLMs, read-out: CYP3A4 activity inhibited to % of control activity); 85.3% at CYP2D6 [7] (human, pooled human liver microsomes, pH 7.4, probe dextromethorphan (O-demethylation), DHM 100 μM, pooled HLMs, read-out: CYP2D6 activity inhibited to % of control activity). In addition, the inhibition constant Ki on CYP2E1 [2] (secondary Lineweaver–Burk plot, chlorzoxazone, DHM 0–50 μM, pooled HLM) stood at 9.24 µM; at CYP3A4 [5] (secondary Lineweaver–Burk plot, testosterone 20–100 μM, pooled HLM) it was 6.06 µM; at CYP2D6 [7] (secondary Lineweaver–Burk plot, dextromethorphan 5–50 μM, DHM 0–50 μM, pooled HLM) it was 10.5 µM. Further, the “Inhibition of CYP2C9 activity” value on CYP2C9 is on record as “did not inhibit”. Moreover, the highest concentration (Cmax) in [3] was 1700 ng/mL. The “Time-dependent inhibition: activity of CYP2E1 after pre-incubation” value at CYP2E1 [4] was “not affected”. Also, at CYP3A4 [5] (Lineweaver–Burk plots), the “Manner of inhibition of CYP3A4” value was “non-competitive”. Besides, on CYP2D6 [6], the “Time-dependent inhibition: activity of CYP2D6 after pre-incubation” value is “not affected”. For the same compound, the “Manner of inhibition of CYP2D6” value on CYP2D6 [7] (Lineweaver–Burk plots) is “competitive”. On CYP1A2, the “Inhibition of CYP1A2 activity” value is listed as “did not inhibit”. Moreover, the “Inhibition of CYP2A6 activity” value at CYP2A6 was “did not inhibit”.
